Assay results published in the supplement of paper PMC12494721.
Counter-ions that a name gives are not always drawn.

What was measured:
Details in all cases: incubation time: 27 h, anaerobic, 37 °C
[1] = tested on: Klebsiella aerogenes DSM 30053; test: growth (OD595) fold change vs plate DMSO controls (fold change (ratio)); higher = more growth
[2] = tested on: Klebsiella aerogenes DSM 30053; test: fold change of Histamine concentration vs plate DMSO controls (fold change (ratio)); higher = more amine produced
Method: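 Dose-response follow-up: bacteria (E. coli IAI1, K. aerogenes DSM 30053, C. sporogenes DSM 1664, R. gnavus DSM 108212) were grown anaerobically in mGAM at 37 °C for 27 h with compound at 0.6125-20 µM. Amines were measured in the whole culture by targeted LC-MS/MS. Metabolite fold change and OD595 fold change are relative to plate DMSO controls; n=2 biological replicates. OD fold changes are not clipped, so slightly negative values mean no growth.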

[3] = tested on: Klebsiella aerogenes DSM 30053; test: fold change of Putrescine concentration vs plate DMSO controls (fold change (ratio)); higher = more amine produced
[4] = tested on: Klebsiella aerogenes DSM 30053; test: fold change of Cadaverine concentration vs plate DMSO controls (fold change (ratio)); higher = more amine produced
[5] = tested on: Clostridium sporogenes DSM 1664; test: growth (OD595) fold change vs plate DMSO controls (fold change (ratio)); higher = more growth
[6] = tested on: Clostridium sporogenes DSM 1664; test: fold change of Tryptamine concentration vs plate DMSO controls (fold change (ratio)); higher = more amine produced
[7] = tested on: Ruminococcus gnavus DSM 108212; test: growth (OD595) fold change vs plate DMSO controls (fold change (ratio)); higher = more growth
[8] = tested on: Ruminococcus gnavus DSM 108212; test: fold change of Tryptamine concentration vs plate DMSO controls (fold change (ratio)); higher = more amine produced
[9] = tested on: Ruminococcus gnavus DSM 108212; test: fold change of 2-Phenylethylamine concentration vs plate DMSO controls (fold change (ratio)); higher = more amine produced

O=[N+]([O-])c1ccc(O)c2ncccc12 [Nitroxoline]
Details	fold change of Cadaverine concentration, [4]	fold change of Histamine concentration, [2]	fold change of Putrescine concentration, [3]	growth, [1]
0.6125 µM	0.967	0.949	1.04	0.817
1.25 µM	0.966	0.911	1.03	0.815
2.5 µM	0.935	1.16	1.02	0.882
5 µM	0.971	0.926	1.06	0.884
10 µM	0.966	1.02	0.997	0.646
20 µM	0.977	0.852	1.01	0.584

Cc1cc(C(C#N)c2ccc(Cl)cc2)c(Cl)cc1NC(=O)c1cc(I)cc(I)c1O (centres undefined) [Closantel]
Details	fold change of Tryptamine concentration, [6]	growth, [5]
0.6125 µM	0.999	0.882
1.25 µM	1.02	0.866
2.5 µM	0.991	0.792
5 µM	0.895	0.749
10 µM	0.367	0.364
20 µM	0.0184	-0.0258

C[C@]1(Cn2ccnn2)[C@H](C(=O)O)N2C(=O)C[C@H]2S1(=O)=O [Tazobactam]
Details	fold change of Tryptamine concentration, [6]	growth, [5]
0.6125 µM	1	1.01
1.25 µM	1.01	1.05
2.5 µM	1.11	1.01
5 µM	1.08	1.01
10 µM	0.984	0.648
20 µM	0.921	0.353

NCc1ccccc1CC(=O)N[C@@H]1C(=O)N2C(C(=O)O)=C(CSc3nnnn3CC(=O)O)CS[C@H]12 [Ceforanide]
Details	fold change of Tryptamine concentration, [6]	growth, [5]
0.6125 µM	0.989	0.842
1.25 µM	1	0.767
2.5 µM	1.04	0.564
5 µM	0.576	0.36
10 µM	0.035	-0.0035
20 µM	0.0236	-0.0325

Cc1ncc([N+](=O)[O-])n1CC(C)O (centres undefined) [Secnidazole]
Details	fold change of Tryptamine concentration, [6]	growth, [5]
0.6125 µM	0.901	0.982
1.25 µM	0.773	1.11
2.5 µM	0.735	1.16
5 µM	0.035	0.156
10 µM	0.026	-0.0233
20 µM	0.0204	-0.023

CC1(C)S[C@@H]2[C@H](NC(=O)[C@H](N)c3ccccc3)C(=O)N2[C@H]1C(=O)OC1OC(=O)c2ccccc21 (some centres undefined) [Talampicillin hydrochloride]
Details	fold change of 2-Phenylethylamine concentration, [9]	fold change of Cadaverine concentration, [4]	fold change of Histamine concentration, [2]	fold change of Putrescine concentration, [3]	fold change of Tryptamine concentration, [8]	growth, [1]	growth, [7]
0.6125 µM	0.103	0.97	0.999	1.03	0.121	0.802	1.73
1.25 µM	0.105	0.967	0.862	1.05	0.116	0.804	0.81
2.5 µM	0.112	0.958	1.31	1.01	0.136	0.905	0.918
5 µM	0.1	1.03	1.27	1.08	0.13	1.1	1.33
10 µM	0.138	1.09	0.959	1.11	0.174	1.1	0.729
20 µM	0.102	1.17	0.912	1.12	0.135	0.477	0.199
